Measured values: patent publication US10913738B2 (BRISTOL-MYERS SQUIBB COMPANY, priority 2017, dated 2021)
Like-named read-outs stand apart in the source and are kept apart here.

How the values were obtained:
[1] = target: T1, His-GST-TVMV-hRIPK1(1-324) (Homo sapiens, UniProt Q13546); assay: RIPK1 HTRF Binding Assay
T1 construct: The coding region of human RIPK1(1-324) flanked by NdeI site at 5′ end; made in house; host or cells: Spodoptera frugiperda (Sf9) insect cells, baculovirus
T1 sequence (Q13546 1-324): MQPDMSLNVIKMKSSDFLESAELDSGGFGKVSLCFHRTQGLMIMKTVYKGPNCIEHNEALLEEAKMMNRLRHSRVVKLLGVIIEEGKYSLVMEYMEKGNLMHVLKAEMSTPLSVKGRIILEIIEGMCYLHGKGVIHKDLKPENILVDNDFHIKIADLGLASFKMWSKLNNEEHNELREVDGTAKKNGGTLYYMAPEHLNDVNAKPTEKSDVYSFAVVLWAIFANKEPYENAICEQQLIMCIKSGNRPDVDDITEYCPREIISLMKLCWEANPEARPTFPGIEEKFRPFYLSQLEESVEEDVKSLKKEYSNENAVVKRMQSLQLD

[2] = tested on: MLKL phosphorylation in HT29-L23 human colorectal adenocarcinoma cells; assay: MLKL Phosphorylation High-Content Assay; format: cell-based; conditions: Homo sapiens
Summary of the method: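 Cells incubated six hours at 37° C., then phospho-MLKL (S358) immunostained overnight at 4° C. and imaged by high-content microscopy. Phosphorylation quantified as mean circ-ring average intensity ratio; IC50 and Ymax from 4-parameter logistic fits.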

[3] = x marks IC50 class <20 nM, read-out: RIPK1 HTRF binding <20 nM
[4] = x marks IC50 class <20 nM, read-out: pMLKL cell activity <20 nM
[5] = x marks IC50 class 20-200 nM, read-out: pMLKL cell activity 20-200 nM
[6] = x marks IC50 class 20-200 nM, read-out: RIPK1 HTRF binding 20-200 nM
[7] = x marks IC50 class >200 nM, read-out: pMLKL cell activity >200 nM
[8] = x marks IC50 class >200 nM, read-out: RIPK1 HTRF binding >200 nM

SMILES	IC50 [1, 3]	IC50 [2, 5]	further results
COc1ncc(-c2ccn3nc(N)nc3c2)cc1C(=O)NCc1ccccc1OC1CCOCC1 [Example 115, 5-{2-amino-[1,2,4]triazolo[1,5-a]pyridin-7-yl}-2-methoxy-N-{[2-(oxan-4-yloxy)phenyl]methyl}pyridine-3-carboxamide]	< 20 nM		IC50 [2, 4]: < 20 nM
Cc1ncc(-c2ccn3nc(N)nc3c2)cc1NC(=O)c1cnn(Cc2ccccc2)c1 [Example 412, N-(5-(2-amino-[1,2,4]triazolo[1,5-a]pyridin-7-yl)-2-methylpyridin-3-yl)-1-benzyl-1H-pyrazole-4-carboxamide]	< 20 nM	20 to 200 nM	
COc1nc(C)c(-c2ccn3nc(N)nc3c2)cc1C(=O)NCc1cc(F)cc(F)c1OCC(C)C [Example 333, 5-(2-amino-[1,2,4]triazolo[1,5-a]pyridin-7-yl)-N-(3,5-difluoro-2-isobutoxybenzyl)-2-methoxy-6-methylnicotinamide]	< 20 nM	20 to 200 nM	
Cc1ccc(-c2ccn3nc(N)nc3c2)nc1C(=O)NCCC(C)c1ccccc1 (stereo not drawn) [Example 404, 6-(2-amino-[1,2,4]triazolo[1,5-a]pyridin-7-yl)-3-methyl-N-(3-phenylbutyl)picolinamide]		20 to 200 nM	IC50 [1, 6]: 20 to 200 nM
CCCOc1ncc(-c2ccn3nc(N)nc3c2)cc1C(=O)NCCC(C)c1ccccc1 (stereo not drawn) [Example 69, 5-{2-Amino-[1,2,4]triazolo[1,5-a]pyridin-7-yl}-N-(3-phenylbutyl)-2-propoxypyridine-3-carboxamide]	< 20 nM		IC50 [2, 7]: > 200 nM
COc1ncc(-c2ccn3nc(N)nc3c2)cc1C(=O)NCc1c(OCC2CC2)ccc(F)c1F [Example 338, 5-(2-amino-[1,2,4]triazolo[1,5-a]pyridin-7-yl)-N-(6-(cyclopropylmethoxy)-2,3-difluorobenzyl)-2-methoxynicotinamide]	< 20 nM		IC50 [2, 4]: < 20 nM
COc1ncc(-c2ccn3nc(N)nc3c2)cc1C(=O)NCc1ncccc1OCC1CCC1 [Example 37, 5-{2-Amino-[1,2,4]triazolo[1,5-a]pyridin-7-yl}-N-{[3-(cyclobutylmethoxy)pyridin-2-yl]methyl}-2-methoxypyridine-3-carboxamide]	< 20 nM	20 to 200 nM	
Cc1ncc(-c2ccn3nc(N)nc3c2)cc1C(=O)NCC[C@H](O)c1ccc(Cl)cc1 [Example 225]		20 to 200 nM	IC50 [1, 6]: 20 to 200 nM
COc1nc(C)c(-c2ccn3nc(N)nc3c2)cc1C(=O)NCc1cccc(OC(F)(F)F)c1 [Example 210, 5-{2-amino-[1,2,4]triazolo[1,5-a]pyridin-7-yl}-2-methoxy-6-methyl-N-{[3-(trifluoromethoxy)phenyl]methyl}pyridine-3-carboxamide]	< 20 nM	20 to 200 nM	
Cc1ncc(-c2ccn3nc(N)nc3c2)cc1C(=O)NCc1cc(F)cc(F)c1OC1CCOC1 (stereo not drawn) [Example 317, 5-(2-amino-[1,2,4]triazolo[1,5-a]pyridin-7-yl)-N-(3,5-difluoro-2-((tetrahydrofuran-3-yl)oxy)benzyl)-2-methylnicotinamide]			IC50 [1, 6]: 20 to 200 nM; IC50 [2, 7]: > 200 nM
COc1nc(C)c(-c2ccn3nc(N)nc3c2)cc1C(=O)NCc1c(F)cc(F)cc1OCC1CCCC1 [Example 202, 5-{2-amino-[1,2,4]triazolo[1,5-a]pyridin-7-yl}-N-{[2-(cyclopentylmethoxy)-4,6-difluorophenyl]methyl}-2-methoxy-6-methylpyridine-3-carboxamide]	< 20 nM	20 to 200 nM	
COc1ncc(-c2ccn3nc(N)nc3c2)cc1C(=O)NCc1ccccc1COC(C)C [Example 348, 5-(2-amino-[1,2,4]triazolo[1,5-a]pyridin-7-yl)-N-(2-(isopropoxymethyl)benzyl)-2-methoxynicotinamide]	< 20 nM	20 to 200 nM	
COc1nc(C)c(-c2ccn3nc(N)nc3c2)cc1C(=O)NCc1cc(F)cc(F)c1OC1CCCOC1 (stereo not drawn) [Example 350, 5-(2-amino-[1,2,4]triazolo[1,5-a]pyridin-7-yl)-N-(3,5-difluoro-2-((tetrahydro-2H-pyran-3-yl)oxy)benzyl)-2-methoxy-6-methylnicotinamide]	< 20 nM		IC50 [2, 4]: < 20 nM
Cc1nc(C)c(-c2ccn3nc(N)nc3c2)cc1C(=O)NCC(O)Cc1ccccc1 (stereo not drawn) [Example 173]			IC50 [1, 6]: 20 to 200 nM; IC50 [2, 7]: > 200 nM
Cc1ccc(-c2ccn3nc(N)nc3c2)nc1C(=O)N[C@H](C)c1cc(OC(F)(F)F)ccc1F [Example 403, (R)-6-(2-amino-[1,2,4]triazolo[1,5-a]pyridin-7-yl)-N-(1-(2-fluoro-5-(trifluoromethoxy)phenyl)ethyl)-3-methylpicolinamide]	< 20 nM	20 to 200 nM	
COc1ccccc1[C@@H](C)NC(=O)c1cc(-c2ccn3nc(N)nc3c2)cnc1OC [Example 156, 5-{2-amino-[1,2,4]triazolo[1,5-a]pyridin-7-yl}-2-methoxy-N-[(1R)-1-(2-methoxyphenyl)ethyl]pyridine-3-carboxamide]			IC50 [1, 6]: 20 to 200 nM; IC50 [2, 7]: > 200 nM
COc1ncc(-c2ccn3nc(N)nc3c2)cc1C(=O)N1CCCC(Cc2ccc(C)cc2)C1 (stereo not drawn) [Example 121, 7-(6-methoxy-5-{3-[(4-methylphenyl)methyl]piperidine-1-carbonyl}pyridin-3-yl)-[1,2,4]triazolo[1,5-a]pyridin-2-amine]		20 to 200 nM	IC50 [1, 6]: 20 to 200 nM
Cc1ncc(-c2ccn3nc(N)nc3c2)cc1C(=O)NCc1cccnc1OCC1CCC1 [Example 233, 5-{2-amino-[1,2,4]triazolo[1,5-a]pyridin-7-yl}-N-{[2-(cyclobutylmethoxy)pyridin-3-yl]methyl}-2-methylpyridine-3-carboxamide]	< 20 nM		IC50 [2, 7]: > 200 nM
Cc1ncc(C(=O)NCc2c(F)cc(F)cc2OCC2CCCC2)cc1-c1ccn2nc(N)nc2c1 [Example 257, 5-{2-amino-[1,2,4]triazolo[1,5-a]pyridin-7-yl}-N{[2-(cyclopentylmethoxy)-4,6-difluorophenyl]methyl}-6-methylpyridine-3-carboxamide]			IC50 [1, 6]: 20 to 200 nM; IC50 [2, 7]: > 200 nM
COc1ncc(-c2ccn3nc(N)nc3c2)cc1C(=O)NCc1ccccc1O[C@@H]1C[C@H]2CC[C@@H]1C2 [Example 30, 5-{2-Amino-[1,2,4]triazolo[1,5-a]pyridin-7-yl}-N-({2-[(1R,2R,4S)-bicyclo[2.2.1]heptan-2-yloxy]phenyl}methyl)-2-methoxypyridine-3-carboxamide]		20 to 200 nM	IC50 [1, 6]: 20 to 200 nM
[2H]C([2H])([2H])[C@H](NC(=O)c1cc(-c2ccn3nc(N)nc3c2)cnc1C)c1cc(OC(F)(F)F)ccc1F [Example 300, (S)-5-(2-amino-[1,2,4]triazolo[1,5-a]pyridin-7-yl)-N-(1-(2-fluoro-5-(trifluoromethoxy)phenyl)ethyl-2,2,2-H3)-2-methylnicotinamide]	< 20 nM		IC50 [2, 4]: < 20 nM
Cc1ncc(-c2ccn3nc(N)nc3c2)cc1C(=O)NCc1ccccc1OCC1CCC1 [Example 248, 5-{2-amino-[1,2,4]triazolo[1,5-a]pyridin-7-yl}-N-{[2-(cyclobutylmethoxy)phenyl]methyl}-2-methylpyridine-3-carboxamide]	< 20 nM		IC50 [2, 4]: < 20 nM
COc1ncc(C(=O)NCc2cc(F)ccc2OC2CCCC2)cc1-c1ccn2nc(N)nc2c1 [Example 27, 5-{2-Amino-[1,2,4]triazolo[1,5-a]pyridin-7-yl}-N-{[2-(cyclopentyloxy)-5-fluorophenyl]methyl}-6-methoxypyridine-3-carboxamide]	< 20 nM		IC50 [2, 4]: < 20 nM
COc1ncc(-c2ccn3nc(N)nc3c2)cc1C(=O)NCc1c(F)cccc1OC1CCCC1 [Example 52, 5-{2-Amino-[1,2,4]triazolo[1,5-a]pyridin-7-yl}-N-{[2-(cyclopentyloxy)-6-fluorophenyl]methyl}-2-methoxypyridine-3-carboxamide]	< 20 nM		IC50 [2, 4]: < 20 nM
Cc1ncc(-c2ccn3nc(N)nc3c2)cc1C(=O)N1CCCC(C(O)c2ccc(F)cc2)C1 (stereo not drawn) [Example 423, (5-(2-amino-[1,2,4]triazolo[1,5-a]pyridin-7-yl)-2-methylpyridin-3-yl)(3-((4-fluorophenyl)(hydroxy)methyl)piperidin-1-yl)methanone]			IC50 [1, 8]: > 200 nM; IC50 [2, 7]: > 200 nM
Cc1ncc(-c2ccn3nc(N)nc3c2)cc1C(=O)NCc1ccccc1OCC1CCCCC1 [Example 230, 5-{2-amino-[1,2,4]triazolo[1,5-a]pyridin-7-yl}-N-{[2-(cyclohexylmethoxy)phenyl]methyl}-2-methylpyridine-3-carboxamide]	< 20 nM	20 to 200 nM	
COc1ncc(-c2ccn3nc(N)nc3c2)cc1C(=O)N[C@H]1CCN(Cc2ccccc2)C1 [Example 159, 5-{2-amino-[1,2,4]triazolo[1,5-a]pyridin-7-yl}-N-[(3S)-1-benzylpyrrolidin-3-yl]-2-methoxypyridine-3-carboxamide]		20 to 200 nM	IC50 [1, 8]: > 200 nM
